Experimental data taken from US6355799B1, “Substituted benzene compounds, process for their preparation, and herbicidal and defoliant compositions containing them” (ISK Americas Incorporated, priority 1997, dated 2002).

Tests used:
Type in all cases: in vivo
[1] = system: redroot pigweed (Amaranthus retroflexus, AMARE); assay: Pre-emerge test, greenhouse herbicide activity screening; conditions: rating scale 0-100, 14 days after application
Method in brief: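 Compounds in acetone were track-sprayed at 187 l/ha, 15–1000 g ai/ha, onto sandy loam pots. Pre-emerge seeds were sown one day before spraying, with surface watering afterwards. Post-emerge plants were at the 2–3 leaf stage and sprayed with 0.25% v/v non-ionic surfactant. Injury was rated 0–100 at 14 days.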

[2] = system: barnyardgrass (Echinochloa crus-galli, ECHCG); assay: as above; conditions: rating scale 0-100, 14 days after application
Method in brief: (§1)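 Sandy loam pots; pre-emerge: sown 1 d pre-spray, surface-watered after, then bottom-watered. Post-emerge: sown 8–21 d before, 2–3 leaf stage, + 0.25% v/v NIS, bottom-watered. Acetone, 187 l/ha track spray, 15–1000 g ai/ha. 0–100 injury score, day 14.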

[3] = system: green foxtail (Setaria viridis, SETVI); assay: as above; conditions: rating scale 0-100, 14 days after application
Method in brief: as §1

[4] = system: ivyleaf morningglory (Ipomoea hederacea, IPOHE); assay: as above; conditions: rating scale 0-100, 14 days after application
Method in brief: as §1

[5] = system: johnsongrass (Sorghum halepense, SORHA); assay: as above; conditions: rating scale 0-100, 14 days after application
Method in brief: as §1

[6] = system: lambsquarters (Chenopodium album, CHEAL); assay: as above; conditions: rating scale 0-100, 14 days after application
Method in brief: as §1

[7] = system: large crabgrass (Digitaria sanguinalis, DIGSA); assay: as above; conditions: rating scale 0-100, 14 days after application
Method in brief: as §1

[8] = system: sicklepod (Cassia obtusifolia, CASOB); assay: as above; conditions: rating scale 0-100, 14 days after application
Method in brief: as §1

[9] = system: velvetleaf (Abutilon theophrasti, ABUTH); assay: as above; conditions: rating scale 0-100, 14 days after application
Method in brief: as §1

[10] = system: field corn (Zea mays L., var. Dekalb 535, CORN); assay: Pre-emerge test, crop safety; conditions: rating scale 0-100, 14 days after application
Method in brief: (§2)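 Rating: 0–100 visual injury, 14 DAA. Application: acetone, 187 l/ha, 15–1000 g ai/ha, flat-fan track sprayer with nozzle 40–45 cm above soil or canopy. Post-emerge runs used 0.25% v/v surfactant on 2–3 leaf plants.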

[11] = system: upland rice (Oryza sp., var. Tebonnet, RICE); assay: Pre-emerge test, crop safety; conditions: rating scale 0-100, 14 days after application
Method in brief: as §2

[12] = system: barnyardgrass (Echinochloa crus-galli, ECHCG); assay: Post-emerge test, greenhouse herbicide activity screening; conditions: 14 days after application; for Post-emerge Herbicidal Activity ECHCG (phytotoxicity rating): rating scale 0-100; for Post-emerge Herbicidal Activity, phytotoxicity rating ECHCG: rating scale 0-100 (0 no damage, 100 complete death)
Method in brief: (§3)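 Herbicidal damage is scored 0 (none) to 100 (complete plant death) two weeks after a simulated field spray. Rates span 15–1000 g ai/ha, delivered in acetone at 187 l/ha. For post-emergence treatments, plants have 2–3 leaves and the spray carries 0.25% v/v non-ionic surfactant.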

[13] = system: common ragweed (Ambrosia artemisizfolia L., AMBEL); assay: as above; conditions: post-emerge, 14 days after application, rating scale 0-100
Method in brief: as §3

[14] = system: green foxtail (Setaria viridis, SETVI); assay: as above; conditions: 14 days after application; for Post-emerge Herbicidal Activity SETVI (phytotoxicity rating): rating scale 0-100; for Post-emerge Herbicidal Activity, phytotoxicity rating SETVI: rating scale 0-100 (0 no damage, 100 complete death)
Method in brief: as §3

[15] = system: ivyleaf morningglory (Ipomoea hederacea, IPOHE); assay: as above; conditions: 14 days after application; for Post-emerge Herbicidal Activity IPOHE (phytotoxicity rating): rating scale 0-100; for Post-emerge Herbicidal Activity, phytotoxicity rating IPOHE: rating scale 0-100 (0 no damage, 100 complete death)
Method in brief: as §3

[16] = system: johnsongrass (Sorghum halepense, SORHA); assay: as above; conditions: rating scale 0-100 (0 no damage, 100 complete death), 14 days after application
Method in brief: as §3

[17] = system: lambsquarters (Chenopodium album, CHEAL); assay: as above; conditions: 14 days after application; for Post-emerge Herbicidal Activity CHEAL (phytotoxicity rating): rating scale 0-100; for Post-emerge Herbicidal Activity, phytotoxicity rating CHEAL: rating scale 0-100 (0 no damage, 100 complete death)
Method in brief: as §3

[18] = system: large crabgrass (Digitaria sanguinalis, DIGSA); assay: as above; conditions: 14 days after application; for Post-emerge Herbicidal Activity DIGSA (phytotoxicity rating): rating scale 0-100; for Post-emerge Herbicidal Activity, phytotoxicity rating DIGSA: rating scale 0-100 (0 no damage, 100 complete death)
Method in brief: as §3

[19] = system: redroot pigweed (Amaranthus retroflexus, AMARE); assay: as above; conditions: 14 days after application
Method in brief: as §3

[20] = system: sicklepod (Cassia obtusifolia, CASOB); assay: as above; conditions: 14 days after application; for Post-emerge Herbicidal Activity CASOB (phytotoxicity rating): rating scale 0-100; for Post-emerge Herbicidal Activity, phytotoxicity rating CASOB: rating scale 0-100 (0 no damage, 100 complete death)
Method in brief: as §3

[21] = system: velvetleaf (Abutilon theophrasti, ABUTH); assay: as above; conditions: 14 days after application; for Post-emerge Herbicidal Activity ABUTH (phytotoxicity rating): rating scale 0-100; for Post-emerge Herbicidal Activity, phytotoxicity rating ABUTH: rating scale 0-100 (0 no damage, 100 complete death)
Method in brief: as §3

[22] = system: field corn (Zea mays L., var. Dekalb 535, CORN); assay: Post-emerge test, crop safety; conditions: 14 days after application; for Post-emerge Herbicidal Activity CORN (crop damage rating): rating scale 0-100; for Post-emerge phytotoxicity rating CORN (crop damage): rating scale 0-100 (0 no damage, 100 complete death)
Method in brief: as §1

[23] = system: upland rice (Oryza sp., var. Tebonnet, RICE); assay: Post-emerge test, crop safety; conditions: 14 days after application; for Post-emerge Herbicidal Activity RICE (crop damage rating): rating scale 0-100; for Post-emerge phytotoxicity rating RICE (crop damage): rating scale 0-100 (0 no damage, 100 complete death)
Method in brief: as §1

C#CCOC(=O)C(C)(Cl)Cc1c(OC)c(Cl)cc(F)c1-n1c(=O)cc(C(F)(F)F)n(C)c1=O (stereo not drawn) [14-44]
50: Pre-emerge herbicidal activity, phytotoxicity rating ECHCG ([2]; 250 g ai/ha) | Pre-emerge phytotoxicity rating, crop damage RICE ([11]; 250 g ai/ha) | Post-emerge Herbicidal Activity, phytotoxicity rating IPOHE ([15]; Rate 63 g ai/ha)
20: Post-emerge Herbicidal Activity CASOB (phytotoxicity rating) ([20]; 250 g ai/ha)
10: Post-emerge Herbicidal Activity CASOB (phytotoxicity rating) ([20]; 63 g ai/ha)
40: Post-emerge Herbicidal Activity AMBEL (phytotoxicity rating) ([13]; 250 g ai/ha) | Post-emerge Herbicidal Activity DIGSA (phytotoxicity rating) ([18]; 63 g ai/ha)
99: Post-emerge Herbicidal Activity CHEAL (phytotoxicity rating) ([17]; 250 g ai/ha) | Post-emerge Herbicidal Activity DIGSA (phytotoxicity rating) ([18]; 250 g ai/ha) | Post-emerge Herbicidal Activity CORN (crop damage rating) ([22]; 63 g ai/ha)
70: Pre-emerge herbicidal activity, phytotoxicity rating AMARE ([1]; 63 g ai/ha) | Pre-emerge herbicidal activity, phytotoxicity rating SETVI ([3]; 250 g ai/ha) | Pre-emerge herbicidal activity, phytotoxicity rating CHEAL ([6]; 63 g ai/ha) | Post-emerge Herbicidal Activity SETVI (phytotoxicity rating) ([14]; 250 g ai/ha) | Post-emerge Herbicidal Activity CHEAL (phytotoxicity rating) ([17]; 63 g ai/ha)
90: Pre-emerge herbicidal activity, phytotoxicity rating DIGSA ([7]; 250 g ai/ha) | Post-emerge Herbicidal Activity, phytotoxicity rating IPOHE ([15]; Rate 250 g ai/ha) | Post-emerge phytotoxicity rating RICE (crop damage) ([23]; Rate 63 g ai/ha)
100: Pre-emerge herbicidal activity, phytotoxicity rating AMARE ([1]; 250 g ai/ha) | Pre-emerge herbicidal activity, phytotoxicity rating CHEAL ([6]; 250 g ai/ha) | Pre-emerge herbicidal activity, phytotoxicity rating ABUTH ([9]; 250 g ai/ha) | Post-emerge Herbicidal Activity ECHCG (phytotoxicity rating) ([12]; 63 g ai/ha) | Post-emerge Herbicidal Activity ECHCG (phytotoxicity rating) ([12]; 250 g ai/ha) | Post-emerge Herbicidal Activity, phytotoxicity rating ECHCG ([12]; Rate 63 g ai/ha) | Post-emerge Herbicidal Activity, phytotoxicity rating ECHCG ([12]; Rate 250 g ai/ha) | Post-emerge Herbicidal Activity, phytotoxicity rating SETVI ([14]; Rate 63 g ai/ha) | Post-emerge Herbicidal Activity, phytotoxicity rating SETVI ([14]; Rate 250 g ai/ha) | Post-emerge Herbicidal Activity, phytotoxicity rating CHEAL ([17]; Rate 63 g ai/ha) | Post-emerge Herbicidal Activity, phytotoxicity rating CHEAL ([17]; Rate 250 g ai/ha) | Post-emerge Herbicidal Activity, phytotoxicity rating DIGSA ([18]; Rate 63 g ai/ha) | Post-emerge Herbicidal Activity, phytotoxicity rating DIGSA ([18]; Rate 250 g ai/ha) | Post-emerge Herbicidal Activity AMARE (phytotoxicity rating) ([19]; 63 g ai/ha, rating scale 0-100 (0 no damage, 100 complete death)) | Post-emerge Herbicidal Activity AMARE (phytotoxicity rating) ([19]; 250 g ai/ha, rating scale 0-100) | Post-emerge Herbicidal Activity, phytotoxicity rating AMARE ([19]; Rate 63 g ai/ha, rating scale 0-100 (0 no damage, 100 complete death)) | Post-emerge Herbicidal Activity, phytotoxicity rating AMARE ([19]; Rate 250 g ai/ha, rating scale 0-100 (0 no damage, 100 complete death)) | Post-emerge Herbicidal Activity ABUTH (phytotoxicity rating) ([21]; 63 g ai/ha) | Post-emerge Herbicidal Activity ABUTH (phytotoxicity rating) ([21]; 250 g ai/ha) | Post-emerge Herbicidal Activity, phytotoxicity rating ABUTH ([21]; Rate 63 g ai/ha) | Post-emerge Herbicidal Activity, phytotoxicity rating ABUTH ([21]; Rate 250 g ai/ha) | Post-emerge Herbicidal Activity CORN (crop damage rating) ([22]; 250 g ai/ha) | Post-emerge phytotoxicity rating CORN (crop damage) ([22]; Rate 63 g ai/ha) | Post-emerge phytotoxicity rating CORN (crop damage) ([22]; Rate 250 g ai/ha) | Post-emerge phytotoxicity rating RICE (crop damage) ([23]; Rate 250 g ai/ha)
80: Pre-emerge herbicidal activity, phytotoxicity rating ABUTH ([9]; 63 g ai/ha) | Post-emerge Herbicidal Activity IPOHE (phytotoxicity rating) ([15]; 250 g ai/ha) | Post-emerge Herbicidal Activity, phytotoxicity rating SORHA ([16]; Rate 250 g ai/ha)
30: Post-emerge Herbicidal Activity AMBEL (phytotoxicity rating) ([13]; 63 g ai/ha) | Post-emerge Herbicidal Activity SETVI (phytotoxicity rating) ([14]; 63 g ai/ha) | Post-emerge Herbicidal Activity IPOHE (phytotoxicity rating) ([15]; 63 g ai/ha) | Post-emerge Herbicidal Activity, phytotoxicity rating SORHA ([16]; Rate 63 g ai/ha)
0: Pre-emerge herbicidal activity, phytotoxicity rating ECHCG ([2]; 63 g ai/ha) | Pre-emerge herbicidal activity, phytotoxicity rating SETVI ([3]; 63 g ai/ha) | Pre-emerge herbicidal activity, phytotoxicity rating IPOHE ([4]; 63 g ai/ha) | Pre-emerge herbicidal activity, phytotoxicity rating IPOHE ([4]; 250 g ai/ha) | Pre-emerge herbicidal activity, phytotoxicity rating SORHA ([5]; 63 g ai/ha) | Pre-emerge herbicidal activity, phytotoxicity rating SORHA ([5]; 250 g ai/ha) | Pre-emerge herbicidal activity, phytotoxicity rating DIGSA ([7]; 63 g ai/ha) | Pre-emerge herbicidal activity, phytotoxicity rating CASOB ([8]; 63 g ai/ha) | Pre-emerge herbicidal activity, phytotoxicity rating CASOB ([8]; 250 g ai/ha) | Pre-emerge phytotoxicity rating, crop damage CORN ([10]; 63 g ai/ha) | Pre-emerge phytotoxicity rating, crop damage CORN ([10]; 250 g ai/ha) | Pre-emerge phytotoxicity rating, crop damage RICE ([11]; 63 g ai/ha) | Post-emerge Herbicidal Activity, phytotoxicity rating CASOB ([20]; Rate 63 g ai/ha) | Post-emerge Herbicidal Activity, phytotoxicity rating CASOB ([20]; Rate 250 g ai/ha) | Post-emerge Herbicidal Activity RICE (crop damage rating) ([23]; 250 g ai/ha)
5: Post-emerge Herbicidal Activity RICE (crop damage rating) ([23]; 63 g ai/ha)
